Assay results taken from US20250368640A1 (BIOFRONT LTD, priority 2022, published 2025).
Read-outs that look alike come from different tables or passages of the source.

Tests used:
FLT3-ITD = FLT3-ITD (Homo sapiens, UniProt P36888, ITD); test: FLT3-ITD enzyme inhibition assay; type: biochemical
Method: FLT3-ITD Enzyme Inhibition Assay
The compound was dissolved in 100% DMSO at the concentration of 10 mM. The FLT3-ITD protein was purchased from Invitrogen (PV6191). 10 μL per well of 2.5×FLT3-ITD protein was added to assay plate containing the test compound, centrifuged at 1000 rpm for 1 minute, and then incubated at 25° C. for 10 minutes. Peptide 2 was purchased from GL Biochem (112394) and ATP was purchased from Promega (V9102). The two were added 15 μL per well mixture of 1.67× peptide 2 (final conc. is 3 μM) and ATP (final conc. is 97.2 μM), centrifuged at 1000 rpm for 1 minute, then incubated at 25° C. for 40 minutes. Then added 30 μL of stop buffer (100 mM HEPES pH7.5, 0.015% Brij-35, 0.2% Coating Reagent 3, 50 mM EDTA) to the assay plate and centrifuged at 1000 rpm for 1 minute. the product was determined. Based on the results, the IC50 value of the compound was calculated.

HPK1 [1] = biological target: T1, HPK1 (Homo sapiens (Human), UniProt Q92918); test: HPK1 degradation assay (western blot, human PBMC); type: cell-based; conditions: for Dmax: read-out: HPK1 Dmax
Method: Frozen human PBMC were purchased from Shanghai OribioTech and recovered with culture medium (RMPI1640) prior to use. The cells were then incubated with a variety of concentrations of compound. After incubation, the cells were collected and lysed. The protein concentration was determined by BCA protein assay kit from Thermo (23227). The HPK1 protein level was determined by western blots, using anti-human HPK1 polyclonal antibody from CST (4472S). Proteins were loaded into each well of the pre-casting gels and subjected to electrophoretic separation by SDS-PAGE. The protein resolved by SDS-PAGE were transferred to PVDF, blocked by 5% skim milk, and probed with anti-human HPK1 antibody or β-actin antibody from CST (3700S), using standard western blotting procedure.
Target sequence in this assay (Q92918 whole entry): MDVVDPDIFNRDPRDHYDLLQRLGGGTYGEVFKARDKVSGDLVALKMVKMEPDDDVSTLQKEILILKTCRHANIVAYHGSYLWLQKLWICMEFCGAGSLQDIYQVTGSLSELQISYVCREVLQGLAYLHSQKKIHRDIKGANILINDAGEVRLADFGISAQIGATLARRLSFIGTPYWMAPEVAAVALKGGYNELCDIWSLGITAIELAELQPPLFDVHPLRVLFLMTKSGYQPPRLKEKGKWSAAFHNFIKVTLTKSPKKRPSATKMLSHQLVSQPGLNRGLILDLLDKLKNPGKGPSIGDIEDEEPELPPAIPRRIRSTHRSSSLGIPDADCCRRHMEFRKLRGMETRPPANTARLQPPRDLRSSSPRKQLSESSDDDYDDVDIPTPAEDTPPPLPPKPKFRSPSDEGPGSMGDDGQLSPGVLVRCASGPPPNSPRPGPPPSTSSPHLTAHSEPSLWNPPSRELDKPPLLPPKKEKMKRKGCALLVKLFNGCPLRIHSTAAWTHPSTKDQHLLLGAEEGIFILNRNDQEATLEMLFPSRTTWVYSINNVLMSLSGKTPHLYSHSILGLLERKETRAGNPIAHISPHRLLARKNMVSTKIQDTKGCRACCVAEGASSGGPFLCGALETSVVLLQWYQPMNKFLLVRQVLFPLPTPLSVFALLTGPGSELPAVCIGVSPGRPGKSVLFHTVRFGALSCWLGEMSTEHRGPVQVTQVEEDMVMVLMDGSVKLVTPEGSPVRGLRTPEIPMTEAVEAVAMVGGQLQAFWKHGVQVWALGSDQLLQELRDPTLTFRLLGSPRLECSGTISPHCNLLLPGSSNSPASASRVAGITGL

Aurora A [2] = biological target: T2, Aurora A (Homo sapiens (Human), UniProt O14965); test: Aurora A degradation assay (western blot); type: cell-based; conditions: protein degradation, IMR32, Huh7 or HL-60 cells
T2 sequence (O14965 whole entry): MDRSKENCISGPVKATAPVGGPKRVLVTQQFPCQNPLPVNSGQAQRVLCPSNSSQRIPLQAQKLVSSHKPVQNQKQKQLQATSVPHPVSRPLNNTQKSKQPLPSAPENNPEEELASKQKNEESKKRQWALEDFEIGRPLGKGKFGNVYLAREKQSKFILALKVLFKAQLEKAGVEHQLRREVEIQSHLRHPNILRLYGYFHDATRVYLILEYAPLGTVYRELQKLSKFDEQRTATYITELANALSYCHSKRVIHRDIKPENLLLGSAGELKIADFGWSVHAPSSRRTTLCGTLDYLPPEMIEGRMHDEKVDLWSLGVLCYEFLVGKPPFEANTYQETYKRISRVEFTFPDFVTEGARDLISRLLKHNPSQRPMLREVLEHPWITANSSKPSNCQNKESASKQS
Method: Aurora A Degradation Assay
(§1) IMR32 cells were cultured with medium (MEM), Huh7 cells were cultured with medium (DMEM) and HL-60 cells were culture with medium (IMDM) prior to use. Cells were then incubated with a variety of concentrations of compound. After incubation, the cells were collected and lysed. The protein concentration was determined by BCA protein assay kit from Thermo (23227). The AURKA protein level was determined by western blots, using anti-human AURKA monoclonal antibody from CST (14475S). Proteins were loaded into each well of the pre-casting gels and subjected to electrophoretic separation by SDS-PAGE. The protein resolved by SDS-PAGE were transferred to PVDF, blocked by 5% skim milk, and probed with anti-human AURKA antibody or β-actin antibody from CST (3700S) or COX IV antibody from CST (4850S), using standard western blotting procedure.

FLT3 = FLT3 degradation assay (western blot, MV-411 cells); type: cell-based, human
Method: as §1, with “MV-411” for “IMR32”, “cultured” for “cultured with medium (MEM), Huh7 cells were cultured with medium (DMEM) and HL-60 cells were culture”, “[…]” for “AURKA”, “(3462S).” for “(14475S).”, “-actin” for “β-actin”, “(3700S),” for “(3700S) or COX IV antibody from CST (4850S),”

MEK 1/2 = MEK 1/2 degradation assay (western blot); type: cell-based, human; conditions: protein degradation, MV-411 or IMR32 cells
Method: MEK 1/2 Degradation Assay
MV-411 cells were cultured with medium (IMDM) and IMR32 cells were cultured with medium (MEM) prior to use. Cells were then incubated with a variety of concentrations of compound. After incubation, the cells were collected and lysed. The protein concentration was determined by BCA protein assay kit from Thermo (23227). The […] protein level was determined by western blots, using anti-human MEK 1/2 polyclonal antibody from CST (9122S). Proteins were loaded into each well of the pre-casting gels and subjected to electrophoretic separation by SDS-PAGE. The protein resolved by SDS-PAGE were transferred to PVDF, blocked by 5% skim milk, and probed with anti-human MEK1/2 antibody or β-actin antibody from CST (3700S) and COX IV antibody from CST (4850S), using standard western blotting procedure.

HPK1 [3] = biological target: T1, HPK1; test: HPK1 enzyme inhibition assay (ADP-Glo); type: biochemical
Method: HPK1 Enzyme Inhibition Assay
The compound was dissolved in 100% DMSO at the concentration of 10 mM. The HPK1 protein was purchased from Signal Chem (M23-11G-10). 2.5 μL per well of 2×HPK1 protein was added to assay plate containing the test compound, centrifuged at 1500 rpm for 1 minute, and then incubated at 25° C. for 60 minutes. MBP protein was purchased from Signal Chem (M42-51N) and ATP was purchased from Promega (V9102). The two were added 2.5 μL per well mixture of 2×MBP (0.2 ug/ul) and ATP (20 μM), centrifuged at 1500 rpm for 1 minute, then incubated at 25° C. for 60 minutes. Then added 5 μL of ADP-Glo from Promega (V9102) to the assay plate and depleted the unconsumed ATP for 60 minutes. Then centrifuged at 1500 rpm for 1 minute and incubated at 25° C. for 60 minutes. Finally, 10 μL of the kinase assay reagent from Promega (V9102) was added to the assay plate to convert ADP to ATP, centrifuged at 1500 rpm for 1 minute, incubate at 25° C. for 40 minutes. After 40 minutes incubation, the […] was determined. Based on the results, the IC50 value of the compound was calculated.
Target sequence in this assay (Q92918 1-346 limits assumed): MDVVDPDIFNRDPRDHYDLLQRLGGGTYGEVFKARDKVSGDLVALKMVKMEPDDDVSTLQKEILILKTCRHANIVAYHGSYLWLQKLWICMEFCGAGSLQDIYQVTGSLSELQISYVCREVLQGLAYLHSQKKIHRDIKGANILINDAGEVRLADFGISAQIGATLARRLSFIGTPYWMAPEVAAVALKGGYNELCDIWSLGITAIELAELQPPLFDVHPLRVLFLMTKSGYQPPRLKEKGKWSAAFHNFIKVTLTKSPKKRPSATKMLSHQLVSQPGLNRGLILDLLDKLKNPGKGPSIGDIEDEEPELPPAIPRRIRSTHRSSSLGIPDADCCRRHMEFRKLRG

Aurora A [4] = biological target: T2, Aurora A; test: Aurora A enzyme inhibition assay; type: biochemical
Method: Aurora A Enzyme Inhibition Assay
The compound was dissolved in 100% DMSO at the concentration of 10 mM. The Aurora A protein was purchased from Carna (05-101). 10 μL per well of 2.5×Aurora A protein was added to assay plate containing the test compound, centrifuged at 1000 rpm for 1 minute, and then incubated at 25° C. for 10 minutes. Peptide 21 was purchased from GL Biochem (116370) and ATP was purchased from Promega (V9102). The two were added 15 μL per well mixture of 1.67× peptide 21 (final conc. is 3 μM) and ATP (final conc. is 14.58 μM), centrifuged at 1000 rpm for 1 minute, then incubated at 25° C. for 40 minutes. Then added 30 μL of stop buffer (100 mM HEPES pH7.5, 0.015% Brij-35, 0.2% Coating Reagent 3, 50 mM EDTA) to the assay plate and centrifuged at 1000 rpm for 1 minute. the product was determined. Based on the results, the IC50 value of the compound was calculated.

[5] = enzyme inhibition, read-out: FLT3-ITD IC50
[6] = protein degradation, human PBMC, read-out: HPK1 DC50
[7] = protein degradation, human PBMC
[8] = class symbol, read-out: Aurora A DC50 (nM)/Dmax (%)
[9] = protein degradation, class symbol, read-out: FLT3 DC50 (nM)/Dmax (%)
[10] = protein degradation, human PBMC, class symbol, read-out: HPK1 DC50 (nM)/Dmax (%)

FLT3-ITD, sequence (P36888 whole entry, looked up, change not shown): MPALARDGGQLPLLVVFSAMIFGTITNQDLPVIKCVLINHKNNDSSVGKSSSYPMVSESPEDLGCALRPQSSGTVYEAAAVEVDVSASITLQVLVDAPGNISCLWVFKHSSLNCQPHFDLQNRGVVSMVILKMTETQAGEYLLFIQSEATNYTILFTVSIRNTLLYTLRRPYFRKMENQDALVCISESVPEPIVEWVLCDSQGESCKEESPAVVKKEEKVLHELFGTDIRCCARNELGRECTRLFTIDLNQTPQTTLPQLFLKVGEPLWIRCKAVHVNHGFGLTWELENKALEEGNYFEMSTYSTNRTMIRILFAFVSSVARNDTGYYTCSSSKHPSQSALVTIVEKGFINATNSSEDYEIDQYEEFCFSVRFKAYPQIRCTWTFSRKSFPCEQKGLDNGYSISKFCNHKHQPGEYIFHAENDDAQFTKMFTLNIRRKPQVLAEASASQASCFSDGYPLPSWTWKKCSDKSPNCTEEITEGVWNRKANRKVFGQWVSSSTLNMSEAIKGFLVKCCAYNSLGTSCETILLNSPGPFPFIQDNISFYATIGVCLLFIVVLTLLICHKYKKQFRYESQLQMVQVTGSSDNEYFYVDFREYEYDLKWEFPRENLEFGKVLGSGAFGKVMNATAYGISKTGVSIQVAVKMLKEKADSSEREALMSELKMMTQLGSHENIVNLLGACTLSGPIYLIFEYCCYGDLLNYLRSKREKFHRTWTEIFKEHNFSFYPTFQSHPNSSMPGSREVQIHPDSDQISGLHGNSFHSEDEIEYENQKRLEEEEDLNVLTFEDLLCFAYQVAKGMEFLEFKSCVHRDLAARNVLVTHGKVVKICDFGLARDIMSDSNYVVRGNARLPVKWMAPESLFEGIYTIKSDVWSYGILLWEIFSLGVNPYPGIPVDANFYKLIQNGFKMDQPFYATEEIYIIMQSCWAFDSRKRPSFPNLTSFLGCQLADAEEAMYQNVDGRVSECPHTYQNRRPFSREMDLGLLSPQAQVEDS

SMILES | IC50 (FLT3-ITD; [5]) [nM] | DC50 (Aurora A [2]; [8]) [nM] | DC50 (FLT3; [9]) [nM] | DC50 (MEK 1/2; read-out: MEK 1/2 DC50) [nM] | IC50 (HPK1 [3]) [nM] | IC50 (Aurora A [4]) [nM] | DC50 (HPK1 [1]; [10]) [nM] | MEK 1/2 Dmax (MEK 1/2) [%] | other results
CCc1c[nH]c2ncc(-c3cccc(N4CCCN(CCN5CC(c6ccc7c(c6)CN(C6CCC(=O)NC6=O)C7=O)C5)C4=O)c3)c(Cl)c12 (centres unmarked) [Example 2] |  |  |  |  |  |  |  |  | IC50 (FLT3-ITD): 4.7 nM; DC50 (HPK1 [1]; read-out: HPK1 DC50, protein degradation, human PBMC): 3 nM; Dmax (HPK1 [1]): 80%; DC50 (Aurora A [2]; read-out: Aurora A DC50 (nM)/Dmax (%), class symbol): > 10000 nM; DC50 (FLT3; read-out: FLT3 DC50 (nM)/Dmax (%), protein degradation, class symbol): > 10000 nM; DC50 (MEK 1/2; read-out: MEK 1/2 DC50 (nM)/Dmax (%), class symbol): > 10000 nM
CCc1c[nH]c2ncc(-c3cccc(N4CCCN(CCN5CCN(c6ccc7c(N8CCC(=O)NC8=O)cccc7c6)CC5)C4=O)c3)c(Cl)c12 [Example 4, 1-(6-(4-(2-(3-(3-(4-chloro-3-ethyl-1H-pyrrolo [2,3-b]pyridin-5-yl)phenyl)-2-oxotetrahydropyrimidin-1 (2H)-yl)ethyl)piperazin-1-yl)naphthalen-1-yl) dihydropyrimidine-2, 4 (1H, 3H)-dione] | 24 | > 10000 | > 10000 | < 1 | 17.1 | 25.2 | > 10000 | 30 | 
CCc1c[nH]c2ncc(-c3cccc(N4CCCN(CCN5CC=C(c6ccc7c(c6)C(=O)N(C6CCC(=O)NC6=O)C7=O)CC5)C4=O)c3)c(Cl)c12 (centres unmarked) [Example 5, 5-(1-(2-(3-(3-(4-chloro-3-ethyl-1H-pyrrolo [2,3-b]pyridin-5-yl)phenyl)-2-oxotetrahydropyrimidin-1 (2H)-yl)ethyl)-1,2,3,6-tetrahydropyridin-4-yl)-2-(2,6-dioxopiperidin-3-yl) isoindoline-1,3-dione] | 27.7 | > 10000 | > 10000 | 2.1 | 13.4 | 21.8 | > 10000 | 65 | 
CCc1c[nH]c2ncc(-c3cccc(N4CCCN(CCN5CC(c6ccc7c(c6)C(=O)N(C6CCC(=O)NC6=O)C7=O)C5)C4=O)c3)c(Cl)c12 (centres unmarked) [Example 6, 5-(1-(2-(3-(3-(4-chloro-3-ethyl-1H-pyrrolo [2,3-b]pyridin-5-yl)phenyl)-2-oxotetra hydropyrimidin-1 (2H)-yl)ethyl)azetidin-3-yl)-2-(2,6-dioxopiperidin-3-yl) isoindo line-1,3-dione] | 18.4 | > 10000 | > 10000 | < 1 | 3.1 | 9.9 | > 10000 | 32 | 
CCc1c[nH]c2ncc(-c3cccc(N4CCCN(CC5CCN(c6ccc7c(c6)C(=O)N(C6CCC(=O)N(C)C6=O)C7=O)CC5)C4=O)c3)c(Cl)c12 (centres unmarked) [Example 10, 5-(4-((3-(3-(4-chloro-3-ethyl-1H-pyrrolo [2,3-b]pyridin-5-yl)phenyl)-2-oxotetrahydropyrimidin-1 (2H)-yl)methyl)piperidin-1-yl)-2-(1-methyl-2,6-dioxopiperidin-3-yl) isoindoline-1,3-dione] | 7.4 |  |  |  | 30.7 | 34.8 |  |  | 

Now from value to compound, other results behind:

IC50 (FLT3-ITD; [5]) [nM] | DC50 (Aurora A [2]; [8]) [nM] | DC50 (FLT3; [9]) [nM] | DC50 (MEK 1/2; read-out: MEK 1/2 DC50) [nM] | IC50 (HPK1 [3]) [nM] | IC50 (Aurora A [4]) [nM] | DC50 (HPK1 [1]; [10]) [nM] | SMILES | MEK 1/2 Dmax (MEK 1/2) [%] | other results
4 | > 10000 | > 10000 | 68 |  |  |  | CCc1c[nH]c2ncc(-c3cccc(N4CCCN(CCN5CC(c6ccc7c(c6)C(=O)N(C6CCC(=O)NC6=O)C7)C5)C4=O)c3)c(Cl)c12 (centres unmarked) [Example 1] | 20 | DC50 (HPK1 [1]; [6]): 173 nM; Dmax (HPK1 [1]; [7]): 75%
13.6 |  |  |  | 5.8 | 50.8 |  | CCc1c[nH]c2ncc(-c3cccc(N4CCCN(CCN5CCC(c6ccc7c(c6)C(=O)N(C6CCC(=O)NC6=O)C7=O)CC5)C4=O)c3)c(Cl)c12 (centres unmarked) [Example 3, 5-(1-(2-(3-(3-(4-chloro-3-ethyl-1H-pyrrolo [2,3-b]pyridin-5-yl)phenyl)-2-oxotetrahydropyrimidin-1 (2H)-yl)ethyl)piperidin-4-yl)-2-(2,6-dioxopiperidin-3-yl) isoindoline-1,3-dione] |  | 
 |  |  |  | 34.3 |  |  | O=C1CCC(N2Cc3cc(N4CCC(CN5CCCN(c6cccc(-c7cnc8[nH]cc(C9CC9)c8c7Cl)c6)C5=O)CC4)ccc3C2=O)C(=O)N1 (centres unmarked) [Example 12, 3-[5-(4-{[3-(3-{4-chloro-3-cyclopropyl-1H-pyrrolo [2,3-b]pyridin-3-yl}phenyl)-2-oxo-1,3-diazinan-1-yl]methyl}piperidin-1-yl)-1-oxo-3H-isoindol-2-yl]piperidine-2,6-dione] |  | 
 |  |  | < 100 | 25.8 |  |  | O=C1CCC(N2Cc3cc(N4CCC(CN5CCCN(c6cccc(-c7cnc8[nH]cc(CC(F)F)c8c7Cl)c6)C5=O)CC4)ccc3C2=O)C(=O)N1 (centres unmarked) [Example 14] | 90 | DC50 (HPK1 [1]; [6]): 100 nM; Dmax (HPK1 [1]; [7]): 90%; DC50 (Aurora A [2]; read-out: Aurora A DC50): < 20 nM; Dmax (Aurora A [2]; read-out: Aurora A Dmax): 95%; FLT3 Dmax (FLT3; protein degradation): 95%; DC50 (FLT3; protein degradation, read-out: FLT3 DC50): 11 nM
